From ChEMBL document CHEMBL2146401, “Synthesis and biological evaluation of novel homochiral carbocyclic nucleosides from 1-amino-2-indanols” (Bioorg Med Chem, 2012)
pEC50: −log10 of the molar value.

What was measured:
[1] = Cytotoxicity against african green monkey Vero cells assessed as cell viability after 2 days by MTS/PMS assay; type: cell-based; conditions: chlorocebus sabaeus
[2] = Cytotoxicity against bovine MDBK cells assessed as cell viability after 3 days by MTS/PMS assay; type: cell-based, Bos taurus; conditions: cattle
[3] = Cytotoxicity against human HepG2(2.2.15) cells assessed as cell viability after 9 days by MTS/PMS assay; type: cell-based
Hepatitis B virus [4] = assay: Antiviral activity against Hepatitis B virus infected in HepG2(2.2.15) cells assessed as reduction in HBsAg level at 100 uM after 9 days by ELISA relative to control; type: functional; conditions: HepG2 2.2.15, 216 h
Human alphaherpesvirus 1 [5] = assay: Antiviral activity against Herpes simplex virus (type 1 / strain F) infected in Vero cells assessed as reduction of number of viral plaques at 100 uM after 2 days relative to control; type: functional; conditions: Human alphaherpesvirus 1, strain F, 48 h
[6] = Antiviral activity against Bovine viral diarrhea virus 1-NADL ATCC VR534 infected in MDBK cells assessed as reduction of viral cytopathic effect at 100 uM after 2 days by MTS assay relative to control; type: functional; conditions: Bovine viral diarrhea virus isolates and strains, 48 h
[7] = Cytotoxicity against bovine MDBK cells assessed as cell viability after 72 hrs by MTS/PMS assay; type: cell-based, Bos taurus; conditions: cattle
[8] = Cytotoxicity against african green monkey Vero cells assessed as cell viability after 72 hrs by MTS/PMS assay; type: cell-based; conditions: chlorocebus sabaeus
[9] = Cytotoxicity against human HepG2(2.2.15) cells assessed as cell viability after 72 hrs by MTS/PMS assay; type: cell-based
Human alphaherpesvirus 1 [10] = assay: Antiviral activity against Herpes simplex virus (type 1 / strain F) infected in Vero cells assessed as reduction of number of viral plaques at 31.25 uM after 2 days relative to control; type: functional; conditions: Human alphaherpesvirus 1, strain F, 48 h
Human alphaherpesvirus 1 [11] = assay: Antiviral activity against Herpes simplex virus (type 1 / strain F) infected in Vero cells assessed as reduction of number of viral plaques after 2 days; type: functional, organism-based; conditions: Human alphaherpesvirus 1, strain F, 48 h
Hepatitis B virus [12] = assay: Antiviral activity against Hepatitis B virus infected in HepG2(2.2.15) cells assessed as reduction in HBsAg level at 20 uM after 9 days by ELISA; type: functional; conditions: HepG2 2.2.15, 216 h
[13] = Antiviral activity against Bovine viral diarrhea virus 1-NADL ATCC VR534 infected in MDBK cells assessed as reduction of viral cytopathic effect after 2 days bt MTS assay; type: functional, cell-based; conditions: Bovine viral diarrhea virus isolates and strains, 48 h

Compound | CC50 at 48 h [1] [µM] | CC50 at 72 h [2] [µM] | CC50 at 216 h [3] [µM] | inhibition at 100 µM (Hepatitis B virus [4]) [%] | inhibition at 100 µM (Human alphaherpesvirus 1 [5]) [%] | other results
Oc1ncnc2c1nnn2[C@@H]1c2ccccc2C[C@H]1O | > 500 | > 500 | > 500 | 16.6 |  | 
Oc1ncnc2c1nnn2[C@H]1c2ccccc2C[C@@H]1O | > 500 | > 500 | > 500 | 25.2 |  | 
Oc1ncnc2c1nnn2[C@H]1c2ccccc2C[C@H]1O | > 500 | > 500 | > 500 | 27.7 | 15.8 | 
Oc1ncnc2c1nnn2[C@@H]1c2ccccc2C[C@@H]1O | > 500 | > 500 | > 500 | 35.3 | 12.8 | 
Nc1ncnc2c1nnn2[C@@H]1c2ccccc2C[C@H]1O | > 500 | > 500 | > 500 | 42.1 | 7.8 | 
Nc1ncnc2c1nnn2[C@H]1c2ccccc2C[C@@H]1O | 311 | > 500 | > 500 | 37.2 | 14.5 | 
Nc1ncnc2c1nnn2[C@@H]1c2ccccc2C[C@@H]1O | 202 | > 500 | > 500 | 17.6 |  | inhibition at 100 µM [6]: 19.4%
Nc1ncnc2c1nnn2[C@H]1c2ccccc2C[C@H]1O | > 500 | > 500 | > 500 | 41.4 | 20.9 | inhibition at 100 µM [6]: 42.1%
O[C@@H]1Cc2ccccc2[C@H]1n1cnc2c(Cl)ncnc21 | > 500 | > 500 | > 500 | 22.6 | 7.2 | 
O[C@H]1Cc2ccccc2[C@@H]1n1cnc2c(Cl)ncnc21 | > 500 | > 500 | > 500 | 14.2 | 16.2 | 
O[C@@H]1Cc2ccccc2[C@@H]1n1cnc2c(Cl)ncnc21 |  |  |  |  |  | CC50 at 72 h [7]: 14.3 µM; CC50 at 72 h [8]: 254 µM; CC50 at 72 h [9]: 308 µM; inhibition at 31.25 µM (Human alphaherpesvirus 1 [10]): 20.9%
O[C@H]1Cc2ccccc2[C@H]1n1cnc2c(Cl)ncnc21 | > 500 | > 500 | > 500 | 30.8 | 23.2 | inhibition at 100 µM [6]: 19.7%
Nc1nc2c(ncn2COCCO)c(=O)[nH]1 [ACYCLOVIR] |  |  |  |  |  | pEC50 (Human alphaherpesvirus 1 [11]): 6.30
Nc1ccn([C@@H]2CS[C@H](CO)O2)c(=O)n1 [LAMIVUDINE] |  |  |  |  |  | inhibition at 20 µM (Hepatitis B virus [12]): 45%
NC(=O)c1ncn([C@@H]2O[C@H](CO)[C@@H](O)[C@H]2O)n1 [RIBAVIRIN] |  |  |  |  |  | pEC50 [13]: 5.34
